According to patent US10010547B2 (CASCADIAN THERAPEUTICS, INC., priority 2014, dated 2018):
Counter-ions that a name gives are not always drawn. Like-named read-outs stand apart in the source and are kept apart here.

Assays:
[1] = target: Chk-1 kinase (Homo sapiens (Human), UniProt O14757); assay: Chk-1 Kinase Inhibiting Activity (33P-ATP filter assay, CHKtide substrate); format: biochemical
Experimental: Chk-1 Kinase Inhibiting Activity
The compounds of the invention were tested for activity against Chk-1 kinase using the materials and protocols set out below.
Base Reaction buffer: 20 mM Hepes (pH 7.5), 10 mM MgCl2, 1 mM EGTA, 0.02% Brij35, 0.02 mg/ml BSA, 0.1 mM Na3VO4, 2 mM DTT, 1% DMSO
*Required cofactors are added individually to each kinase reaction
(i) Prepare indicated substrate in freshly prepared Base Reaction Buffer
(ii) Deliver any required cofactors to the substrate solution above
(iii) Deliver indicated kinase into the substrate solution and gently mix
(iv) Deliver compounds in DMSO into the kinase reaction mixture
(v) Deliver ^33P-ATP (specific activity 0.01 μCi/μl final) into the reaction mixture to initiate the reaction.
(vi) Incubate kinase reaction for 120 minutes at room temperature
(vii) Reactions are spotted onto P81 ion exchange paper (Whatman #3698-915)
(viii) Wash filters extensively in 0.1% phosphoric acid.
(ix) Dry filters and measure counts in scintillation counter
Recombinant full length construct, N-terminal GST tagged, purified from insect cells.
No special measures were taken to activate this kinase.
Final concentration in assay=0.5 nM
Peptide sequence: [[…]]
Final concentration in assay=20 μM
No additional cofactors are added to the reaction mixture
From the results obtained by following the above protocol, the IC50 values against Chk-1 kinase of each of the compounds of Examples 1-153 were determined and these are shown in Table 3.

[2] = system: MIA PaCa-2 cells; assay: Gemcitabine Combination Cell Assay (Cell Titer Glo); format: cell-based; conditions: for IC50: Homo sapiens; for 10xLS: approximate concentration of Chk1 inhibitor that results in a 10-fold reduction in the IC50 of gemcitabine alone; for 2xLS: approximate concentration of Chk1 inhibitor that results in a two-fold reduction in the IC50 of gemcitabine alone
Experimental: Gemcitabine Combination Cell Assay
Exponentially growing MIA PaCa-2 (ATCC CRL-1420) cells are treated with trypsin to remove cells from the plate surface. Approximately 10,000 cells/well are plated in 96 well plates in RPMI containing 10% fetal bovine serum, 1% sodium pyruvate and 1% L-GlutaMax. Cells are allowed to adhere to the plate surface overnight. Serial half-log dilutions of Chk1 inhibitor test compounds and gemcitabine are made with a final highest concentration of 3000 nM and 100 nM, respectively. Chk1 inhibitors and gemcitabine are combined so that each concentration of Chk1 inhibitor is added to each concentration of gemcitabine. Each drug is also tested as a single agent. Drugs are added to adherent cells (in duplicate) and incubated for 72 h. At 72 h the cells are treated with Promega Cell Titer Glo reagent for approximately 15 minutes. Luminescence (relative light units, RLU) is recorded using a BMG Polarstar Omega plate reader. The single agent concentration that results in a 50% reduction in total signal (IC50) is calculated using PRISM software and a four-parameter non-linear regression curve fit. For combination studies the RLUs are plotted using PRISM on an XY plot with the gemcitabine concentration on the X axis and RLU on the Y axis. The RLU for each concentration of Chk1 inhibitor is plotted as a function of gemcitabine concentration. The IC50 for gemcitabine alone and at each concentration of Chk1 is determined using a four-parameter non-linear regression curve fit. The approximate concentration of Chk1 inhibitor that results in a two and ten-fold reduction in the IC50 of gemcitabine alone is calculated as an indication of synergistic potency.
From the results obtained by following the above protocol, the IC50 values against MIAPaca-2 cells of the Chk1 inhibitor alone (Chk1 IC50), the approximate concentration of Chk1 inhibitor that results in a two-fold (2×LS) and a 10-fold (10×LS) reduction in the IC50 of gemcitabine alone of each of the compounds of Examples 1-154 are shown in Table 4.

[3] = against Chk-1 kinase, read-out: IC50
[4] = Chk1 inhibitor alone, MIA PaCa-2 cells, 72 h, read-out: Chk1 IC50
[5] = MIA PaCa-2, 72 h, read-out: Chk1 IC50 (nM)

Chk-1 kinase, sequence (O14757 whole entry): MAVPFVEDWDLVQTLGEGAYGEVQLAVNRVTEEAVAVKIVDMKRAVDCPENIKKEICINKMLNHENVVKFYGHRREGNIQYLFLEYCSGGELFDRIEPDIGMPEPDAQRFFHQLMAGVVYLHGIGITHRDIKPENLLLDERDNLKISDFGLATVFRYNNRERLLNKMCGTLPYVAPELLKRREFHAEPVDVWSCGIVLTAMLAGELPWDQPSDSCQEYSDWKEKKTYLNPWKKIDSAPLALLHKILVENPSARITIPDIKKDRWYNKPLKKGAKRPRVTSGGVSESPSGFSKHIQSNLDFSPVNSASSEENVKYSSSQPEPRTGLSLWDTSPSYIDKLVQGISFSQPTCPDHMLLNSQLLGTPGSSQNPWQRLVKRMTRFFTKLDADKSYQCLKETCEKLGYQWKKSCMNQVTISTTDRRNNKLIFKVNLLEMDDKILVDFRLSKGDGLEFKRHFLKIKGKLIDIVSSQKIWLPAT

Row | Compound | IC50 [1, 3] [nM] | IC50 [2, 4] [nM] | 10xLS ([2]; MIA PaCa-2 cells, 72 h) [nM] | 2xLS ([2]; MIA PaCa-2 cells, 72 h) [nM] | IC50 [1] [nM] | IC50 [2, 5] [nM]
1 | COc1cc(NCc2ccccc2)ccc1-c1cc(Nc2cnc(C#N)cn2)n[nH]1 [Example 2, 5-[5-(4-benzylamino-2-methoxy-phenyl)-1H-pyrazol-3-ylamino]-pyrazine-2-carbonitrile] | 2.7 | 1410 | 1000 | 100 |  | 
2 | COc1cc(CNCC(C)C)ccc1-c1cc(Nc2cnc(C#N)cn2)n[nH]1 [Example 146, 5-[[5-[4-[(isobutylamino)methyl]-2-methoxy-phenyl]-1H-pyrazol-3-yl]amino]pyrazine-2-carbonitrile] | 0.012 | 433 | 100 | 3 |  | 
3 | COc1cc(N2CCNCC2)ccc1-c1cc(Nc2cnc(C#N)cn2)n[nH]1 [Example 46, 5-[[5-(2-methoxy-4-piperazin-1-yl-phenyl)-1H-pyrazol-3-yl]amino]pyrazine-2-carbonitrile] |  | 442 | <30 | <3 | 0.054 | 
4 | COc1cc(CN(C)CCN2CCOCC2)ccc1-c1cc(Nc2cnc(C#N)cn2)n[nH]1 [Example 15, 5-[[5-[2-methoxy-4-[[methyl(2-morpholinoethyl)amino]methyl]phenyl]-1H-pyrazol-3-yl]amino]pyrazine-2-carbonitrile] | 0.3 | 2210 | ~3000 | ~5 |  | 
5 | COc1cc([C@@H]2CN(C(C)C)CCO2)ccc1-c1cc(Nc2cnc(C#N)cn2)n[nH]1 [Example 147, 5-[[5-[4-[(2R)-4-isopropylmorpholin-2-yl]-2-methoxy-phenyl]-1H-pyrazol-3-yl]amino]pyrazine-2-carbonitrile] | 0.16 | 1200 | 300 | 10 |  | 
6 | COc1cc(OC[C@@H]2CCCN2C)ccc1-c1cc(Nc2cnc(C#N)cn2)n[nH]1 [Example 104, 5-[[5-[2-methoxy-4-[[(2S)-1-methylpyrrolidin-2-yl]methoxy]phenyl]-1H-pyrazol-3-yl]amino]pyrazine-2-carbonitrile hydrochloride] | 0.12 |  | 100 | 3 |  | 214
7 | CCN1CCC(c2ccc(-c3cc(Nc4cnc(C#N)cn4)n[nH]3)c(OC)c2)C(F)(F)C1 (stereo not shown) [Example 98, 5-[[5-[4-(1-ethyl-3,3-difluoro-4-piperidyl)-2-methoxy-phenyl]-1H-pyrazol-3-yl]amino]pyrazine-2-carbonitrile] | 1.8 | 1780 | <1000 | 10 |  | 
8 | CCN1CCC[C@H]1Cc1ccc(-c2cc(Nc3cnc(C#N)cn3)n[nH]2)c(OC)c1 [Example 152, 5-[[5-[4-[[(2S)-1-ethylpyrrolidin-2-yl]methyl]-2-methoxy-phenyl]-1H-pyrazol-3-yl]amino]pyrazine-2-carbonitrile] |  | 428 | 100 | 3 |  | 
9 | COc1cc(CN2CC[C@H](OC)C2)ccc1-c1cc(Nc2cnc(C#N)cn2)n[nH]1 [Example 124, 5-[[5-[2-methoxy-4-[[(3S)-3-methoxypyrrolidin-1-yl]methyl]phenyl]-1H-pyrazol-3-yl]amino]pyrazine-2-carbonitrile] |  | 322 | <300 | 3 |  | 
10 | COc1cc(C[C@@H]2CCCN2C(C)C)ccc1-c1cc(Nc2cnc(C#N)cn2)n[nH]1 [Example 154, 5-[[5-[4-[[(2S)-1-isopropylpyrrolidin-2-yl]methyl]-2-methoxy-phenyl]-1H-pyrazol-3-yl]amino]pyrazine-2-carbonitrile] |  | 395 | 100 | 3 |  | 
11 | COc1cc(C2CCNCC2)ccc1-c1cc(Nc2cnc(C(=O)O)cn2)n[nH]1 [Example 45, 5-[[5-[2-methoxy-4-(4-piperidyl)phenyl]-1H-pyrazol-3-yl]amino]pyrazine-2-carboxylic acid] | > 100 |  |  |  |  | 
12 | COc1cc(CNC(=O)C2CC2)ccc1-c1cc(Nc2cnc(C#N)cn2)n[nH]1 [Example 13, N-[[4-[3-[(5-cyanopyrazin-2-yl)amino]-1H-pyrazol-5-yl]-3-methoxy-phenyl]methyl]cyclopropanecarboxamide] |  | > 3000 | 300 | ~20 |  | 
13 | COc1cc(C[C@H]2CCCN2C(C)C)ccc1-c1cc(Nc2cnc(C#N)cn2)n[nH]1 [Example 151, 5-[[5-[4-[[(2R)-1-isopropylpyrrolidin-2-yl]methyl]-2-methoxy-phenyl]-1H-pyrazol-3-yl]amino]pyrazine-2-carbonitrile] |  | 101 | <30 | <3 |  | 
14 | N#Cc1cnc(Nc2cc(-c3ccc(CNCc4ccccc4)cc3)[nH]n2)cn1 [Example 5, 5-{5-[4-(benzylamino-methyl)-phenyl]-1H-pyrazol-3-ylamino}-pyrazine-2-carbonitrile] | 2 |  |  |  |  | 
15 | COc1cc(CN2CC[C@@H](OC)C2)ccc1-c1cc(Nc2cnc(C#N)cn2)n[nH]1 [Example 125, 5-[[5-[2-methoxy-4-[[(3R)-3-methoxypyrrolidin-1-yl]methyl]phenyl]-1H-pyrazol-3-yl]amino]pyrazine-2-carbonitrile] |  | 550 | <300 | 10 |  | 
16 | COc1cc([C@H]2CN(C)CCO2)ccc1-c1cc(Nc2cnc(C#N)cn2)n[nH]1 [Example 119, 5-[[5-[2-methoxy-4-[(2S)-4-methylmorpholin-2-yl]phenyl]-1H-pyrazol-3-yl]amino]pyrazine-2-carbonitrile] |  | 687 | <300 | 10 |  | 
17 | CCN1CCC[C@@H]1Cc1ccc(-c2cc(Nc3cnc(C#N)cn3)n[nH]2)c(OC)c1 [Example 149, 5-[[5-[4-[[(2R)-1-ethylpyrrolidin-2-yl]methyl]-2-methoxy-phenyl]-1H-pyrazol-3-yl]amino]pyrazine-2-carbonitrile hydrochloride] |  |  | 30 | <3 |  | 188
18 | COc1cc([C@H]2CN(C(C)C)CCO2)ccc1-c1cc(Nc2cnc(C#N)cn2)n[nH]1 [Example 150, 5-[[5-[4-[(2S)-4-isopropylmorpholin-2-yl]-2-methoxy-phenyl]-1H-pyrazol-3-yl]amino]pyrazine-2-carbonitrile] |  | 259 | 100 | 3 |  | 
19 | COc1cc(CCNCc2ccccc2)ccc1-c1cc(Nc2cnc(C#N)cn2)n[nH]1 [Example 4, 5-{5-[4-(2-Benzylamino-ethyl)-2-methoxy-phenyl]-1H-pyrazol-3-ylamino}-pyrazine-2-carbonitrile hydrochloride] | 0.19 |  |  |  |  | 
20 | COc1cc(OCc2cocn2)ccc1-c1cc(Nc2cnc(C#N)cn2)n[nH]1 [Example 105, 5-[[5-[2-methoxy-4-(oxazol-4-ylmethoxy)phenyl]-1H-pyrazol-3-yl]amino]pyrazine-2-carbonitrile] |  | 2300 | 1000 | 30 |  | 
21 | CCN1CCO[C@@H](c2ccc(-c3cc(Nc4cnc(C#N)cn4)n[nH]3)c(OC)c2)C1 [Example 120, 5-[[5-[2-methoxy-4-[(2S)-4-ethylmorpholin-2-yl]phenyl]-1H-pyrazol-3-yl]amino]pyrazine-2-carbonitrile] |  | 397 | 100 | 3 |  | 
22 | COc1cc(C2CCCCN2C)ccc1-c1cc(Nc2cnc(C#N)cn2)n[nH]1 (stereo not shown) [Example 41, 5-[[5-[2-methoxy-4-(1-methyl-2-piperidyl)phenyl]-1H-pyrazol-3-yl]amino]pyrazine-2-carbonitrile] |  | 1110 | 300 | 30 |  | 
